≈ marks a conversion by molar mass, not a printed value. Where two headings read alike, the source gives them in different places.
Key:
[1] = test system: Candida albicans ATCC MYA-2876; assay: Mouse candidemia efficacy model; format: in vivo; conditions: female CD-1 mice infected with Candida albicans ATCC MYA-2876
Description: Experimental animals: female CD-1 mice, 7 weeks old, 27 to 29 g, n=5 or 8;
microbial pathogen: Candida albicans ATCC MYA-2876;
inoculation level and route: 2.0 to 4.0E+05 CFU/mouse, infected by tail vein injection;
treatment: The treatment started at 1 hour after infection. Firstly, ABT was administered orally, and 2 hours later, the test compound was injected intraperitoneally once a day for 7 days in total, with an administration volume of 10 mL/kg.
Observation indicators: Changes in body weight and mortality within 7 days after infection in each group of mice.

in vivo = assay: in vivo; set-up: species or system crab-eating macaques; conditions: monkey
Text: (§1) Experimental Purpose: To evaluate the druggability of the compounds by measuring its pharmacokinetic properties in different animal species.
(§2) Experimental materials: CD-1 mice, Sprague-Dawley strain rats, beagle dogs, and crab-eating macaques.
(§3) Drug preparation: An appropriate amount of sample was weighed and then prepared into a clear or suspended solution.
(§4) Experimental procedure: The animal pharmacokinetic characteristics after intravenous injection and oral administration of the compound were tested using a standard protocol. The candidate compound was prepared as a clear solution (for intravenous injection) or a homogeneous suspension (for oral administration) during the experiment and administered to the animals as a single dose. Whole blood samples were collected at 0.083, 0.25, 0.5, 1, 2, 4, 8, and 24 hours, centrifuged at 3200 g for 10 minutes to separate the supernatant to obtain plasma samples. The plasma concentration was quantitatively analyzed by LC-MS/MS analysis method and pharmacokinetic parameters were calculated, such as peak concentration, peak time, clearance rate, half-life, area under the drug-time curve, etc.

[2] = test system: Candida parapsilosis ATCC 22019; assay: Minimum inhibitory concentration (MIC) test against fungi; format: cell-based; conditions: Lodderomyces parapsilosis, ATCC22019, 24 h, ≥50% growth inhibition by eye, three independent experiments (1st, 2nd, 3rd time), read-out: MIC
Description: (§5) To test the minimum inhibitory concentration (MIC) and minimum effective concentration (MEC) of the drug against fungi.
(§6) Experimental strains: Candida parapsilosis ATCC 22019; Candida albicans ATCC MYA-2876; Candida albicans WX-CA009; Candida glabrata ATCC15126; Candida tropicalis ATCC 750;
(§7) Test medium: RPMI1640 (containing 0.165 M MOPS, pH7.0)
(§8) On the day of the experiment, the compound in the bottle was dissolved in 100% DMSO to a stock solution concentration of 6.24 mg/mL. Then, the mixture was 10-fold diluted with DMSO to 0.624 mg/mL for use.
(§9) A 2-fold gradient dilution of the compound solution (0.624 mg/mL) was performed using DMSO on a 96-microwell plate (V-bottom) to obtain 100× working solutions (wells 1 to 11). 624, 312, 156, 78, 39, 20, 10, 5, 2.5, 1.25, 0.625 μg/mL. 100% DMSO was used as a positive control (well 12). This was the compound stock plate.
(§10) Candida parapsilosis ATCC 22019 and Candida albicans ATCC MYA-2876; Candida albicans WX-CA009; Candida glabrata ATCC15126; Candida tropicalis ATCC 750 frozen at −80° C. were streaked on SDA plates and incubated aerobically in a 35±2° C. incubator for 24 hours.
(§11) On the day of the experiment, for strains Candida parapsilosis ATCC 22019, Candida albicans ATCC MYA-2876; Candida albicans WX-CA009; Candida glabrata ATCC15126; Candida tropicalis ATCC 750 and Cryptococcus neoformans H99 ATCC 208821, the plates were taken out and the clones on the plates were picked, suspended in normal saline, and then the turbidity of the fungal suspension was adjusted to OD600=0.2 using a turbidimeter. The fungal suspension contained about 3.0×10^6 CFU/mL. Then the turbidity-adjusted fungal suspension was diluted with a test medium to a concentration of about 3.0×10^3 CFU/mL. This was the inoculum.
(§12) 2 μL of 100× working solution from the compound stock plate (prepared in 3.1) was transferred to a round-bottomed 96-well plate (containing 98 μL of test medium), and then 100 μL of fungus inoculum (prepared in 3.2) was added to each well to obtain a MIC test plate. Therefore, the final test concentrations of the compounds were 6.24, 3.12, 1.56, 0.78, 0.39, 0.20, 0.10, 0.05, 0.025, 0.0125, 0.006 μg/mL. 1% DMSO was used as a growth control.
(§13) For strains Candida parapsilosis ATCC 22019; Candida albicans ATCC MYA-2876; Candida albicans WX-CA009; Candida glabrata ATCC15126; Candida tropicalis ATCC 750, all test plates were incubated aerobically in a 35±2° C. incubator for 24 hours.
(§14) After incubation, according to the criteria in Table 1 below, the test plate was observed by eye or microscope to determine the MIC (g/mL) and MEC (g/mL) of the test compound against yeast and mold.

[3] = test system: Candida glabrata ATCC15126; assay: as above; format: cell-based; conditions: ≥50% growth inhibition by eye, three independent experiments
Description: as §5, §6, §7, §8, §9, §10, §11, §12, §13, §14

[4] = test system: Candida albicans WX-CA009; assay: as above; format: cell-based; conditions: Candida albicans, WXCA009, 24 h, ≥50% growth inhibition by eye, three independent experiments, read-out: MIC
Description: as §5, §6, §7, §8, §9, §10, §11, §12, §13, §14

[5] = Pharmacokinetic evaluation in mice (IV); format: in vivo, CD-1 mice; conditions: CD-1, plasma, 1 mg/kg, Mouse, 1 mpk
Text: as §1, §2, §3, §4

[6] = test system: Cryptococcus neoformans H99 ATCC 208821; assay: Minimum inhibitory concentration (MIC) test against fungi; format: cell-based; conditions: Cryptococcus neoformans, ATCC208821, 72 h, ≥50% growth inhibition by eye, three independent experiments, read-out: MIC
Description: as §5
Cryptococcus neoformans H99 ATCC 208821;
as §7, §8, §9
Cryptococcus neoformans H99 ATCC 208821 frozen at −80° C. was streaked on SDA plates and incubated aerobically in a 35±2° C. incubator for 48 hours.
as §11, §12
For Cryptococcus neoformans H99 ATCC 208821, all test plates were incubated aerobically in a 35±2° C. incubator for 72 hours.
as §14

[7] = crab-eating macaque (cynomolgus), iv, 0.4 mg/kg
[8] = crab-eating macaque (cynomolgus), po, 10 mg/kg

Nc1ccc(C#CCc2ccc(COc3ccccn3)cc2)cn1 [WX004]
protection from death caused by candidemia ([1]; 26 mg/kg intraperitoneally once a day for 7 days after 50 mg/kg ABT orally, n=5): completely protect | survival rate ([1]; 6 mpk intraperitoneally once a day for 7 days after ABT orally, n=8): 100% | AUC (in vivo; [7]): 5 µM·h | Vd (in vivo; [7]): 4.4 L/kg | clearance (in vivo; [7]): 4.3 mL/min/kg | Cmax (in vivo; [8]): 9 µM | Tmax (in vivo; [8]): 4 h | AUC (in vivo; crab-eating macaque, po, 10 mg/kg): 72 µM·h | half-life (in vivo; iv, 0.4 mg/kg): 3.5 h | bioavailability (in vivo; po, 10 mg/kg): 60% | MIC [2]: 0.05 µg/mL (≈ 0.159 µM) | MIC ([3]; Nakaseomyces glabratus, ATCC15126, 24 h, read-out: MIC): 0.39 µg/mL (≈ 1.24 µM) | MIC ([3]; 24 hours): 0.78 µg/mL (≈ 2.47 µM) | MIC [4]: 0.025 µg/mL (≈ 0.0793 µM) | AUC [5]: 2 µM·h | Vd [5]: 5.2 L/kg | clearance [5]: 28 mL/min/kg | half-life [5]: 2.1 h | MIC [6]: 1.56 µg/mL (≈ 4.95 µM)

Reference: patent publication US12492169B2, “Aminopyridine compound and application thereof” (priority 2020, dated 2025)
